Results reported in PubChem BioAssay AID1963836 (Molecular Pharmacology Branch, DTP, NCI, 2024).

Tested on: 857933-349-R-J2-PDC complex spheroid viability
Test: Anticancer human tumor 857933-349-R-J2-PDC patient-derived colon adenocarcinoma cell line growth inhibition [POLQ]
Settings: for IC50: curve of first compound; for viability, T/C: stronger effect = lower value
Summary of the method: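 Complex spheroid viability model combining PDC tumour cells with endothelial (HUVEC) and MSC stromal cells. Novobiocin, ART-558 or RP6685 were tested singly and in combination with standard and investigational anticancer drugs. Each was titrated in half-log steps from near clinical Cmax, or from 10 microM where Cmax was unknown.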

[1] = second compound 0.0316 µM, first compound 0.0316 µM
[2] = second compound 0.0316 µM, first compound 0.1 µM
[3] = second compound 0.0316 µM, first compound 0.316 µM
[4] = second compound 0.0316 µM, first compound 1 µM
[5] = second compound 0.1 µM, first compound 0.0316 µM
[6] = second compound 0.1 µM, first compound 0.1 µM
[7] = second compound 0.1 µM, first compound 0.316 µM
[8] = second compound 0.1 µM, first compound 1 µM
[9] = second compound 0.316 µM, first compound 0.0316 µM
[10] = second compound 0.316 µM, first compound 0.1 µM
[11] = second compound 0.316 µM, first compound 0.316 µM
[12] = second compound 0.316 µM, first compound 1 µM
[13] = second compound 1 µM, first compound 0.0316 µM
[14] = second compound 1 µM, first compound 0.1 µM
[15] = second compound 1 µM, first compound 0.316 µM
[16] = second compound 1 µM, first compound 1 µM
[17] = second compound 3.16 µM, first compound 0.0316 µM
[18] = second compound 3.16 µM, first compound 0.1 µM
[19] = second compound 3.16 µM, first compound 0.316 µM
[20] = second compound 3.16 µM, first compound 1 µM
[21] = second compound 10 µM, first compound 0.0316 µM
[22] = second compound 10 µM, first compound 0.1 µM
[23] = second compound 10 µM, first compound 0.316 µM
[24] = second compound 10 µM, first compound 1 µM
[25] = second compound 0.0316 µM, first compound 3.16 µM
[26] = second compound 0.0316 µM, first compound 10 µM
[27] = second compound 0.1 µM, first compound 3.16 µM
[28] = second compound 0.1 µM, first compound 10 µM
[29] = second compound 0.316 µM, first compound 3.16 µM
[30] = second compound 0.316 µM, first compound 10 µM
[31] = second compound 1 µM, first compound 3.16 µM
[32] = second compound 1 µM, first compound 10 µM
[33] = second compound 3.16 µM, first compound 3.16 µM
[34] = second compound 3.16 µM, first compound 10 µM
[35] = second compound 10 µM, first compound 3.16 µM
[36] = second compound 10 µM, first compound 10 µM
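Further: spheroids exposed to compounds for seven days before readout.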

Work on `COc1cccc(OCCCN)c1-c1cc(Nc2cnc(C#N)cn2)n[nH]1` + COC1C(OC(N)=O)C(O)C(Oc2ccc3c(O)c(NC(=O)c4ccc(O)c(CC=C(C)C)c4)c(=O)oc3c2C)OC1(C)C yielded an IC50 (second compound 0.0316 µM) of 0.0895 µM, an IC50 (second compound 0.1 µM) of 0.0669 µM and an IC50 (second compound 0.316 µM) of 0.155 µM. The IC50 (second compound 1 µM) was 0.0869 µM, the IC50 (second compound 3.16 µM) was 0.204 µM and the IC50 (second compound 10 µM) was 0.17 µM. The viability, T/C (second compound 0.0316 µM, first compound 0.00316 µM) was 102%, the viability, T/C (second compound 0.0316 µM, first compound 0.01 µM) was 75.5% and the viability, T/C [1] was 61.3%. The viability, T/C [2] was 48.8%, the viability, T/C [3] was 44.1% and the viability, T/C [4] was 29.9%. For the same compound, the viability, T/C (second compound 0.1 µM, first compound 0.00316 µM) was 79.5%, the viability, T/C (second compound 0.1 µM, first compound 0.01 µM) was 113% and the viability, T/C [5] was 58.8%. For the same compound, the viability, T/C [6] was 51.5%, the viability, T/C [7] was 48.9% and the viability, T/C [8] was 35.4%. The viability, T/C (second compound 0.316 µM, first compound 0.00316 µM) was 85.2%, the viability, T/C (second compound 0.316 µM, first compound 0.01 µM) was 86.1% and the viability, T/C [9] was 62.6%. For the same compound, the viability, T/C [10] was 53.2%, the viability, T/C [11] was 48.5% and the viability, T/C [12] was 35.4%. It also gave a viability, T/C (second compound 1 µM, first compound 0.00316 µM) of 95%, a viability, T/C (second compound 1 µM, first compound 0.01 µM) of 84.2% and a viability, T/C [13] of 52.8%. For the same compound, the viability, T/C [14] was 51.2%, the viability, T/C [15] was 46.5% and the viability, T/C [16] was 32.2%. It also gave a viability, T/C (second compound 3.16 µM, first compound 0.00316 µM) of 93.7%, a viability, T/C (second compound 3.16 µM, first compound 0.01 µM) of 89.1% and a viability, T/C [17] of 79.5%. For the same compound, the viability, T/C [18] was 56.2%, the viability, T/C [19] was 47.5% and the viability, T/C [20] was 33.6%. For the same compound, the viability, T/C (second compound 10 µM, first compound 0.00316 µM) was 88%, the viability, T/C (second compound 10 µM, first compound 0.01 µM) was 77.7% and the viability, T/C [21] was 70.5%. It also gave a viability, T/C [22] of 54.2%, a viability, T/C [23] of 44% and a viability, T/C [24] of 31%.

`CCCS(=O)(=O)Nc1ccc(F)c(C(=O)c2c[nH]c3ncc(-c4ccc(Cl)cc4)cc23)c1F` + Cc1cccc(N(C)C(=O)C2C(O)CCN2c2nc(C)cc(C(F)(F)F)c2C#N)c1 was tested, and the IC50 (second compound 0.0316 µM) was 6.96 µM, the IC50 (second compound 0.1 µM) was 6.4 µM and the IC50 (second compound 0.316 µM) was 6.8 µM. It also gave an IC50 (second compound 1 µM) of 6.73 µM, an IC50 (second compound 3.16 µM) of 6.62 µM and an IC50 (second compound 10 µM) of 6.51 µM. For the same compound, the viability, T/C [1] was 87.7%, the viability, T/C [2] was 104% and the viability, T/C [3] was 97%. It also gave a viability, T/C [4] of 99.3%, a viability, T/C [25] of 98.8% and a viability, T/C [26] of 28.1%. It also gave a viability, T/C [5] of 106%, a viability, T/C [6] of 105% and a viability, T/C [7] of 93.6%. For the same compound, the viability, T/C [8] was 94.5%, the viability, T/C [27] was 98.7% and the viability, T/C [28] was 19.1%. The viability, T/C [9] was 107%, the viability, T/C [10] was 99.6% and the viability, T/C [11] was 93.2%. It also gave a viability, T/C [12] of 95.5%, a viability, T/C [29] of 109% and a viability, T/C [30] of 24.2%. It also gave a viability, T/C [13] of 95.6%, a viability, T/C [14] of 111% and a viability, T/C [15] of 99.5%. It also gave a viability, T/C [16] of 91.3%, a viability, T/C [31] of 103% and a viability, T/C [32] of 23.6%. The viability, T/C [17] was 92.1%, the viability, T/C [18] was 96% and the viability, T/C [19] was 82.2%. For the same compound, the viability, T/C [20] was 100%, the viability, T/C [33] was 102% and the viability, T/C [34] was 25.2%. The viability, T/C [21] was 115%, the viability, T/C [22] was 99% and the viability, T/C [23] was 97%. It also gave a viability, T/C [24] of 99.9%, a viability, T/C [35] of 96.5% and a viability, T/C [36] of 22.3%.

For `CNCc1ccc(-c2[nH]c3cc(F)cc4c3c2CCNC4=O)cc1` + Nc1ccc(C#CCN(C(=O)Cc2ncc(C(F)(F)F)cc2C(F)(F)F)c2ccc(F)cc2)nn1, the IC50 (second compound 0.0316 µM) was > 10 µM, the IC50 (second compound 0.1 µM) was > 10 µM and the IC50 (second compound 0.316 µM) was > 10 µM. The IC50 (second compound 1 µM) was > 10 µM, the IC50 (second compound 3.16 µM) was > 10 µM and the IC50 (second compound 10 µM) was > 10 µM. The viability, T/C [1] was 91.7%, the viability, T/C [2] was 101% and the viability, T/C [3] was 92%. The viability, T/C [4] was 97.1%, the viability, T/C [25] was 101% and the viability, T/C [26] was 98.2%. It also gave a viability, T/C [5] of 94.5%, a viability, T/C [6] of 78.7% and a viability, T/C [7] of 85.6%. The viability, T/C [8] was 110%, the viability, T/C [27] was 103% and the viability, T/C [28] was 93.7%. The viability, T/C [9] was 103%, the viability, T/C [10] was 102% and the viability, T/C [11] was 95.3%. The viability, T/C [12] was 94.9%, the viability, T/C [29] was 107% and the viability, T/C [30] was 90.6%. It also gave a viability, T/C [13] of 93.4%, a viability, T/C [14] of 101% and a viability, T/C [15] of 98.9%. For the same compound, the viability, T/C [16] was 107%, the viability, T/C [31] was 94.3% and the viability, T/C [32] was 98.2%. For the same compound, the viability, T/C [17] was 96.3%, the viability, T/C [18] was 84.9% and the viability, T/C [19] was 92.1%. For the same compound, the viability, T/C [20] was 104%, the viability, T/C [33] was 97.7% and the viability, T/C [34] was 101%. The viability, T/C [21] was 91.6%, the viability, T/C [22] was 99% and the viability, T/C [23] was 91.2%. It also gave a viability, T/C [24] of 93%, a viability, T/C [35] of 100% and a viability, T/C [36] of 92%.
